In ChEMBL document CHEMBL6153025, “Multidrug-resistant bacteria quorum-sensing inhibitors: A particular focus on Pseudomonasaeruginosa” (Eur J Med Chem, 2025):
pIC50: −log10 of the molar value. ≈ marks a conversion by molar mass, not a printed value.

Assays:
[1] = system: Pseudomonas aeruginosa; assay: Antibacterial activity against Pseudomonas aeruginosa PAO1 assessed as bacterial growth inhibition after 20 hrs by liquid microdilution method; type: functional, organism-based; conditions: PAO1, 20 h
[2] = system: Pseudomonas aeruginosa; assay: Antivirulence activity against Pseudomonas aeruginosa PAO1 assessed as reduction in protease production; type: functional, organism-based
[3] = system: Pseudomonas aeruginosa; assay: Antivirulence activity against Pseudomonas aeruginosa PAO1 assessed as reduction in elastase production; type: functional, organism-based
[4] = system: Pseudomonas aeruginosa; assay: Antivirulence activity against Pseudomonas aeruginosa PAO1 assessed as reduction in pyocyanin production; type: functional, organism-based
[5] = system: Pseudomonas aeruginosa; assay: Antimicrobial activity against Pseudomonas aeruginosa PAO1 assessed as reduction in bacterial growth measured for 24 hrs by broth micro-dilution method; type: functional
[6] = system: Pseudomonas aeruginosa; assay: Antibiofilm activity against Pseudomonas aeruginosa PA22 assessed as reduction in biofilm formation at 1/2 sub-MIC doses incubated for 24 hrs by crystal violet staining based analysis relative to control; type: functional; parameters: scale not given: the % may be the effect or the level left
[7] = system: Pseudomonas aeruginosa; assay: Antibiofilm activity against Pseudomonas aeruginosa PA21 assessed as reduction in biofilm formation at 1/4 sub-MIC doses incubated for 24 hrs by crystal violet staining based analysis relative to control; type: functional; parameters: scale not given: the % may be the effect or the level left
[8] = system: Pseudomonas aeruginosa; assay: Antivirulence activity against Pseudomonas aeruginosa PA22 assessed as reduction in protease production incubated for 1 hr by absorbance based analysis relative to control; type: functional; parameters: scale not given: the % may be the effect or the level left
[9] = system: Pseudomonas aeruginosa; assay: Antivirulence activity against Pseudomonas aeruginosa PA14 assessed as reduction in protease production incubated for 1 hr by absorbance based analysis relative to control; type: functional; parameters: scale not given: the % may be the effect or the level left
[10] = system: Pseudomonas aeruginosa; assay: Antivirulence activity against Pseudomonas aeruginosa PAO1 assessed as reduction in hemolysin activity incubated for 1 hr by absorbance based analysis relative to control; type: functional; parameters: scale not given: the % may be the effect or the level left
[11] = system: Pseudomonas aeruginosa; assay: Antivirulence activity against Pseudomonas aeruginosa PA23 assessed as reduction in protease production incubated for 1 hr by absorbance based analysis relative to control; type: functional; parameters: scale not given: the % may be the effect or the level left
[12] = system: Pseudomonas aeruginosa; assay: Antibiofilm activity against Pseudomonas aeruginosa PA22 assessed as reduction in biofilm formation at 1/4 sub-MIC doses incubated for 24 hrs by crystal violet staining based analysis relative to control; type: functional; parameters: scale not given: the % may be the effect or the level left
[13] = system: Pseudomonas aeruginosa; assay: Antibiofilm activity against Pseudomonas aeruginosa PA23 assessed as reduction in biofilm formation at 1/4 sub-MIC doses incubated for 24 hrs by crystal violet staining based analysis relative to control; type: functional; parameters: scale not given: the % may be the effect or the level left
[14] = system: Pseudomonas aeruginosa; assay: Antibiofilm activity against Pseudomonas aeruginosa PAO1 assessed as reduction in biofilm formation at 16 ug/ml incubated for 2 to 4 hrs by crystal violet staining based analysis relative to control; type: functional; parameters: scale not given: the % may be the effect or the level left; conditions: dose 16 µg/ml; time 2-4 hrs
[15] = system: Pseudomonas aeruginosa; assay: Antibiofilm activity against Pseudomonas aeruginosa PA24 assessed as reduction in biofilm formation at 1/4 sub-MIC doses incubated for 24 hrs by crystal violet staining based analysis relative to control; type: functional; parameters: scale not given: the % may be the effect or the level left
[16] = system: Pseudomonas aeruginosa; assay: Antivirulence activity against Pseudomonas aeruginosa PA14 assessed as reduction in hemolysin activity incubated for 1 hr by absorbance based analysis relative to control; type: functional; parameters: scale not given: the % may be the effect or the level left
[17] = system: Pseudomonas aeruginosa; assay: Antivirulence activity against Pseudomonas aeruginosa PA14 assessed as reduction in pyocyanin production incubated for 1 hr by absorbance based analysis relative to control; type: functional; parameters: scale not given: the % may be the effect or the level left
[18] = system: Pseudomonas aeruginosa; assay: Antivirulence activity against Pseudomonas aeruginosa PA24 assessed as reduction in hemolysin activity incubated for 1 hr by absorbance based analysis relative to control; type: functional; parameters: scale not given: the % may be the effect or the level left
[19] = system: Pseudomonas aeruginosa; assay: Antibiofilm activity against Pseudomonas aeruginosa PA24 assessed as reduction in biofilm formation at 1/2 sub-MIC doses incubated for 24 hrs by crystal violet staining based analysis relative to control; type: functional; parameters: scale not given: the % may be the effect or the level left
[20] = system: Pseudomonas aeruginosa; assay: Antivirulence activity against Pseudomonas aeruginosa PA22 assessed as reduction in pyocyanin production incubated for 1 hr by absorbance based analysis relative to control; type: functional; parameters: scale not given: the % may be the effect or the level left
[21] = system: Pseudomonas aeruginosa; assay: Antivirulence activity against Pseudomonas aeruginosa PA23 assessed as reduction in pyocyanin production incubated for 1 hr by absorbance based analysis relative to control; type: functional; parameters: scale not given: the % may be the effect or the level left
[22] = system: Pseudomonas aeruginosa; assay: Antivirulence activity against Pseudomonas aeruginosa PA24 assessed as reduction in pyocyanin production incubated for 1 hr by absorbance based analysis relative to control; type: functional; parameters: scale not given: the % may be the effect or the level left
[23] = system: Pseudomonas aeruginosa; assay: Antivirulence activity against Pseudomonas aeruginosa PA24 assessed as reduction in protease production incubated for 1 hr by absorbance based analysis relative to control; type: functional; parameters: scale not given: the % may be the effect or the level left
[24] = system: Pseudomonas aeruginosa; assay: Antivirulence activity against Pseudomonas aeruginosa PA22 assessed as reduction in hemolysin activity incubated for 1 hr by absorbance based analysis relative to control; type: functional; parameters: scale not given: the % may be the effect or the level left
[25] = system: Pseudomonas aeruginosa; assay: Antivirulence activity against Pseudomonas aeruginosa PAO1 assessed as reduction in pyocyanin production incubated for 1 hr by absorbance based analysis relative to control; type: functional; parameters: scale not given: the % may be the effect or the level left
[26] = system: Pseudomonas aeruginosa; assay: Antivirulence activity against Pseudomonas aeruginosa PA23 assessed as reduction in hemolysin activity incubated for 1 hr by absorbance based analysis relative to control; type: functional; parameters: scale not given: the % may be the effect or the level left
[27] = system: Pseudomonas aeruginosa; assay: Antivirulence activity against Pseudomonas aeruginosa PAO1 assessed as reduction in protease production incubated for 1 hr by absorbance based analysis relative to control; type: functional; parameters: scale not given: the % may be the effect or the level left
[28] = system: Pseudomonas aeruginosa; assay: Antivirulence activity against Pseudomonas aeruginosa PA21 assessed as reduction in hemolysin activity incubated for 1 hr by absorbance based analysis relative to control; type: functional; parameters: scale not given: the % may be the effect or the level left
[29] = system: Pseudomonas aeruginosa; assay: Antibiofilm activity against Pseudomonas aeruginosa PA14 assessed as reduction in biofilm formation at 1/2 sub-MIC doses incubated for 24 hrs by crystal violet staining based analysis relative to control; type: functional; parameters: scale not given: the % may be the effect or the level left
[30] = system: Pseudomonas aeruginosa; assay: Antibiofilm activity against Pseudomonas aeruginosa PAO1 assessed as reduction in biofilm formation at 1/4 sub-MIC doses incubated for 24 hrs by crystal violet staining based analysis relative to control; type: functional; parameters: scale not given: the % may be the effect or the level left
[31] = system: Pseudomonas aeruginosa; assay: Antibiofilm activity against Pseudomonas aeruginosa PA23 assessed as reduction in biofilm formation at 1/2 sub-MIC doses incubated for 24 hrs by crystal violet staining based analysis relative to control; type: functional; parameters: scale not given: the % may be the effect or the level left
[32] = system: Pseudomonas aeruginosa; assay: Antivirulence activity against Pseudomonas aeruginosa PA21 assessed as reduction in pyocyanin production incubated for 1 hr by absorbance based analysis relative to control; type: functional; parameters: scale not given: the % may be the effect or the level left
[33] = system: Pseudomonas aeruginosa; assay: Antivirulence activity against Pseudomonas aeruginosa PA21 assessed as reduction in protease production incubated for 1 hr by absorbance based analysis relative to control; type: functional; parameters: scale not given: the % may be the effect or the level left
[34] = system: Pseudomonas aeruginosa; assay: Antibiofilm activity against Pseudomonas aeruginosa PA14 assessed as reduction in biofilm formation at 1/4 sub-MIC doses incubated for 24 hrs by crystal violet staining based analysis relative to control; type: functional; parameters: scale not given: the % may be the effect or the level left
[35] = system: Pseudomonas aeruginosa; assay: Antibiofilm activity against Pseudomonas aeruginosa PAO1 assessed as reduction in biofilm formation at 1/2 sub-MIC doses incubated for 24 hrs by crystal violet staining based analysis relative to control; type: functional; parameters: scale not given: the % may be the effect or the level left
[36] = system: Pseudomonas aeruginosa; assay: Antibiofilm activity against Pseudomonas aeruginosa PA21 assessed as reduction in biofilm formation at 1/2 sub-MIC doses incubated for 24 hrs by crystal violet staining based analysis relative to control; type: functional; parameters: scale not given: the % may be the effect or the level left
[37] = system: Pseudomonas aeruginosa; assay: Antibiofilm activity against Pseudomonas aeruginosa PAO1; type: functional, organism-based
[38] = system: Pseudomonas aeruginosa; assay: Antibacterial activity against Pseudomonas aeruginosa PAO1 assessed as bacterial growth inhibition incubated for 24 hrs by micro-broth dilution method; type: functional
[39] = system: Pseudomonas aeruginosa; assay: Downregulation of rhlR mRNA expression level in Pseudomonas aeruginosa PAO1 at 200 uM by RT-PCR analysis relative to control; type: functional
[40] = system: Pseudomonas aeruginosa; assay: Downregulation of lasI mRNA expression level in Pseudomonas aeruginosa PAO1 at 200 uM by RT-PCR analysis relative to control; type: functional
[41] = system: Pseudomonas aeruginosa; assay: Downregulation of lasR mRNA expression level in Pseudomonas aeruginosa PAO1 at 200 uM by RT-PCR analysis relative to control; type: functional
[42] = system: Pseudomonas aeruginosa; assay: Downregulation of rhlI mRNA expression level in Pseudomonas aeruginosa PAO1 at 200 uM by RT-PCR analysis relative to control; type: functional

## COc1c(O)cc(O)c2c(=O)cc(-c3ccccc3)oc12 [WOGONIN]
[1]
  IC50: 15 µg/mL (≈ 52.8 µM)
[2]
  IC50: 15 µg/mL (≈ 52.8 µM)
[3]
  IC50: 15 µg/mL (≈ 52.8 µM)
[4]
  IC50: 15 µg/mL (≈ 52.8 µM)

## Fc1ccc(-c2nn(-c3ccc(Cl)cc3)cc2-c2nc(-c3ccccc3)c(-c3ccccc3)[nH]2)c(Br)c1
[5]
  MIC: 63 µg/mL (≈ 111 µM)

## COC(=O)c1cc(O)c(O)c(O)c1 [GALLIC ACID METHYL ESTER]
[6]
  Activity: 82.2%
[7]
  Activity: 77.8%
[8]
  Activity: 47.3%
[9]
  Activity: 40.1%
[10]
  Activity: 63.9%
[11]
  Activity: 27.6%
[12]
  Activity: 81.5%
[13]
  Activity: 77.9%
[14]
  Activity: 63%
[15]
  Activity: 78.1%
[16]
  Activity: 60.5%
[17]
  Activity: 66.5%
[18]
  Activity: 55.7%
[19]
  Activity: 83.7%
[20]
  Activity: 80.9%
[21]
  Activity: 79.6%
[22]
  Activity: 78.7%
[23]
  Activity: 42.4%
[24]
  Activity: 57.8%
[25]
  Activity: 68.1%
[26]
  Activity: 49.8%
[27]
  Activity: 40.3%
[28]
  Activity: 63.2%
[29]
  Activity: 81.6%
[30]
  Activity: 77.6%
[31]
  Activity: 83.8%
[32]
  Activity: 87.3%
[33]
  Activity: 53.6%
[34]
  Activity: 78.6%
[35]
  Activity: 83%
[36]
  Activity: 83.3%

## O=c1c(O)c(-c2ccc(O)c(O)c2)oc2cc(O)cc(O)c12 [QUERCETIN]
[37]
  pIC50: 4.00
[38]
  MIC: 1 µM (≈ 0.302 µg/mL)
[39]
  Activity: 85%
[40]
  Activity: 85%
[41]
  Activity: 85%
[42]
  Activity: 85%
